{"source": "paper PMC9599640", "origin": "cited, not measured here", "parameters": "method as in PMID 27217383", "conditions": "phase I trial of abemaciclib", "data": [{"smiles": "CCN1CCN(Cc2ccc(Nc3ncc(F)c(-c4cc(F)c5nc(C)n(C(C)C)c5c4)n3)nc2)CC1", "note": "[abemaciclib]", "values": [{"measurement": "MTD", "value": 200, "unit": "mg BID"}]}]}
